This assay concerns the target T1, human 4lg B7-H3 (Homo sapiens, UniProt Q5ZPR3).
T1 sequence (Q5ZPR3 29-534): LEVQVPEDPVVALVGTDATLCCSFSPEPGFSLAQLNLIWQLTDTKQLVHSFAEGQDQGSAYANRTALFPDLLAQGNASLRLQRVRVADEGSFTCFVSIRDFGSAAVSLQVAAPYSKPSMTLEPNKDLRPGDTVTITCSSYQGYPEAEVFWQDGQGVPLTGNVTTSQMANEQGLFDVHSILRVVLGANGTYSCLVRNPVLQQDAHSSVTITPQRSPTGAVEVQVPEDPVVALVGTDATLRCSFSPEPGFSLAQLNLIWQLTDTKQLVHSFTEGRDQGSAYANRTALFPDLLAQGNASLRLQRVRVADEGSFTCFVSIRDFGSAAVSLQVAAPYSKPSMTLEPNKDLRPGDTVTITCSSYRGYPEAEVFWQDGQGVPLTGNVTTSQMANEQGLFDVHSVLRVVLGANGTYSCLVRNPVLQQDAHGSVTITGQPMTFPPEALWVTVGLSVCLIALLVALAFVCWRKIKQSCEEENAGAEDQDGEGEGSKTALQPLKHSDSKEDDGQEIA
The experiment in a line: Affinity determination by surface plasmon resonance (SPR) to 4Ig B7-H3. To be noted: 4Ig B7-H3. For orientation: SPR reads the build-up and loss of mass on a sensor chip optically.

[1] abbreviates: SPR KD—37° C., 37° C. flow cell temperature.
[2] abbreviates: SPR KD—25° C., 25° C. flow cell temperature.

Starred links: 1 amine or outer side, 2 acyl side, 3 side chain; linkers in the order of their positions; H or OH if unused. Positions of bridges follow the written chain, without caps; N, C: chain ends. Non-standard residues stand in square brackets, D forms with d. Residues, ends and D or L forms follow the SMILES beside them. *: point of attachment. X7 = O=C(O)CN1CCN(CC(=O)O)CCN(CC(=O)NCCOCCOCCOCCOCCOCCOCCOCCOCC(=O)*)CCN(CC(=O)O)CC1; Ala(piperidin-4-yl) = O=C([C@H](CC1CCN([*:3])CC1)N[*:1])[*:2]; Phe(3-CH2NH2) = O=C([C@H](Cc1cccc(CN[*:3])c1)N[*:1])[*:2]; DOTA = O=C(O)CN1CCN(CC(=O)O)CCN(CC(=O)*)CCN(CC(=O)O)CC1; Trp(5-F) = N[C@@H](Cc1c[nH]c2ccc(F)cc12)C(=O)O; Phe(4-F) = N[C@@H](Cc1ccc(F)cc1)C(=O)O; γGlu = O=C(O)[C@H](CCC(=O)[*:2])N[*:1]; 1Nal = N[C@@H](Cc1cccc2ccccc12)C(=O)O; Ala(4-THP) = N[C@@H](CC1CCOCC1)C(=O)O; Val(3-OH) = CC(C)(O)[C@H](N)C(=O)O; 4Pal = N[C@@H](Cc1ccncc1)C(=O)O; Abu(4-CN) = N#CCC[C@H](N)C(=O)O; Aad = N[C@@H](CCCC(=O)O)C(=O)O; Cha = N[C@@H](CC1CCCCC1)C(=O)O; Tle = CC(C)(C)[C@H](N)C(=O)O; hLeu = CC(C)CC[C@H](N)C(=O)O; NMeS = CN[C@@H](CO)C(=O)O; Nle = CCCC[C@H](N)C(=O)O; Aze = O=C(O)[C@@H]1CCN1; Dab = NCC[C@H](N)C(=O)O

As a reminder, the Kd is the equilibrium constant for the complex coming apart. Low values mean tighter binding, high ones weaker binding.

For the compound `CC(=O)N[C@@H](CCC(C)C)C(=O)N[C@@H](Cc1ccc(O)cc1)C(=O)N[C@H]1CSSC[C@@H](C(=O)N[C@@H](Cc2c[nH]c3ccc(F)cc23)C(=O)N[C@@H](Cc2ccccc2)C(=O)N[C@H](C(=O)N[C@H](CCCCNC(=O)CN2CCN(CC(=O)O)CCN(CC(=O)O)CCN(CC(=O)O)CC2)C(=O)O)C(C)(C)O)NC(=O)[C@H](Cc2ccc(O)cc2)NC(=O)[C@H](CO)NC(=O)[C@H](CC(=O)O)NC(=O)[C@H](CC2CCOCC2)NC(=O)[C@H](CCCCN)NC(=O)CNC(=O)[C@H](C(C)(C)C)NC1=O` [compound 378, Ac-hLeu-Y-C-Tbg-G-K-ThpA-D-Ser-Y-C-5FW-F-hydroxyVal-dLys(DOTA)-COOH] (Ac-[hLeu]YC[Tle]GK[Ala(4-THP)]DSYC[Trp(5-F)]F[Val(3-OH)][dK](DOTA)-OH; disulfide 3-11), the equilibrium dissociation constant (Kd) under setting [1] is 100 to 300 nM.

For the compound `CC(C)CC[C@H](NC(=O)CC[C@H](NC(=O)CC[C@H](NC(=O)CC[C@H](NC(=O)CN1CCN(CC(=O)O)CCN(CC(=O)O)CCN(CC(=O)O)CC1)C(=O)O)C(=O)O)C(=O)O)C(=O)N[C@@H](Cc1ccc(F)cc1)C(=O)N[C@H]1CSSC[C@@H](C(=O)N[C@@H](Cc2cccc3ccccc23)C(=O)N[C@@H](Cc2ccccc2)C(=O)N2CCC[C@H]2C(N)=O)NC(=O)[C@H](Cc2ccc(O)cc2)NC(=O)[C@H](C(C)C)NC(=O)[C@H](CC(=O)O)NC(=O)[C@H](CC2CCOCC2)NC(=O)[C@H](CC2CCNCC2)NC(=O)CNC(=O)[C@H](C(C)(C)C)NC1=O` [compound 272, DOTA-gE-gE-gE-hLeu-4FPhe-C-Tbg-G-PipAla-ThpA-D-V-Y-C-1Nal-F-Pro-CONH2] ({DOTA-γGlu-γGlu-γGlu}-[hLeu][Phe(4-F)]C[Tle]G[Ala(piperidin-4-yl)][Ala(4-THP)]DVYC[1Nal]FP-NH2; disulfide 3-11), the equilibrium dissociation constant (Kd) under setting [2] lay within 100 to 300 nM.

`CCCC[C@H](NC(C)=O)C(=O)N[C@@H](Cc1ccc(O)cc1)C(=O)N[C@H]1CSSC[C@@H](C(=O)N[C@@H](Cc2c[nH]c3ccccc23)C(=O)N[C@@H](Cc2ccccc2)C(=O)N[C@H](C(=O)N[C@H](CCCCNC(=O)CN2CCN(CC(=O)O)CCN(CC(=O)O)CCN(CC(=O)O)CC2)C(=O)O)[C@@H](C)O)NC(=O)[C@H](Cc2ccc(O)cc2)NC(=O)[C@H](C(C)C)NC(=O)[C@H](CC(=O)O)NC(=O)[C@H](Cc2ccc(O)cc2)NC(=O)[C@H](CCCC(=O)O)NC(=O)CNC(=O)[C@H](C(C)C)NC1=O` [compound 103, Ac-Nle-Y-C-V-G-HomoGlu-Y-D-V-Y-C-W-F-Thr-dLys(DOTA)-COOH] (Ac-[Nle]YCVG[Aad]YDVYCWFT[dK](DOTA)-OH; disulfide 3-11) yielded an equilibrium dissociation constant (Kd) under setting [2] of 10 to 100 nM.

Compound `CC(=O)N[C@@H](CCC(C)C)C(=O)N[C@@H](Cc1ccc(O)cc1)C(=O)N[C@H]1CSSC[C@@H](C(=O)N[C@@H](Cc2c[nH]c3ccc(F)cc23)C(=O)N[C@H](C(=O)N[C@H](C(=O)N[C@H](CCCCNC(=O)CN2CCN(CC(=O)O)CCN(CC(=O)O)CCN(CC(=O)O)CC2)C(=O)O)[C@@H](C)O)C(C)(C)C)NC(=O)[C@H](Cc2ccc(O)cc2)NC(=O)[C@H](C(C)C)NC(=O)[C@H](CC(=O)O)NC(=O)[C@H](CC2CCOCC2)NC(=O)[C@H](CCCCN)NC(=O)CNC(=O)[C@H](C(C)(C)C)NC1=O` [compound 335, Ac-hLeu-Y-C-Tbg-G-K-ThpA-D-V-Y-C-5FW-Tbg-Thr-dLys(DOTA)-COOH] (Ac-[hLeu]YC[Tle]GK[Ala(4-THP)]DVYC[Trp(5-F)][Tle]T[dK](DOTA)-OH; disulfide 3-11) displayed a Kd under setting [2] of 1 to 10 nM.

Compound `CCCC[C@H](NC(C)=O)C(=O)N[C@@H](Cc1ccc(O)cc1)C(=O)N[C@H]1CSSC[C@@H](C(=O)N[C@@H](Cc2c[nH]c3ccccc23)C(=O)N[C@@H](Cc2ccccc2)C(=O)N[C@H](C(=O)N[C@H](CCCCNC(=O)CN2CCN(CC(=O)O)CCN(CC(=O)O)CCN(CC(=O)O)CC2)C(N)=O)[C@@H](C)O)NC(=O)[C@H](Cc2ccc(O)cc2)NC(=O)[C@H](C(C)C)NC(=O)[C@H](CC(=O)O)NC(=O)[C@H](Cc2ccc(O)cc2)NC(=O)[C@H](CCCC)NC(=O)CNC(=O)[C@H](C(C)C)NC1=O` [compound 66, Ac-Nle-Y-C-V-G-Nle-Y-D-V-Y-C-W-F-Thr-dLys(DOTA)-CONH2] (Ac-[Nle]YCVG[Nle]YDVYCWFT[dK](DOTA)-NH2; disulfide 3-11) had a dissociation constant Kd under setting [2] of 10 to 100 nM.

In the case of `CC(=O)N[C@@H](CCC(C)C)C(=O)N[C@@H](Cc1ccc(O)cc1)C(=O)N[C@H]1CSSC[C@@H](C(=O)N[C@@H](Cc2c[nH]c3ccccc23)C(=O)N[C@@H](Cc2ccccc2)C(=O)N[C@H](C(=O)N[C@H](CCCCNC(=O)CN2CCN(CC(=O)O)CCN(CC(=O)O)CCN(CC(=O)O)CC2)C(N)=O)[C@@H](C)O)NC(=O)[C@H](Cc2ccc(O)cc2)NC(=O)[C@H](C(C)C)NC(=O)[C@H](CC(=O)O)NC(=O)[C@H](Cc2ccncc2)NC(=O)[C@H](CCCCN)NC(=O)CNC(=O)[C@H](C(C)C)NC1=O` [compound 155, Ac-hLeu-Y-C-V-G-K-4PyA-D-V-Y-C-W-F-Thr-dLys(DOTA)-CONH2] (Ac-[hLeu]YCVGK[4Pal]DVYCWFT[dK](DOTA)-NH2; disulfide 3-11), the equilibrium dissociation constant (Kd) under setting [2] was < 1 nM.

Turning to `CC(=O)N[C@@H](CCC(C)C)C(=O)N[C@@H](Cc1ccc(O)cc1)C(=O)N[C@H]1CSSC[C@@H](C(=O)N[C@@H](Cc2c[nH]c3ccc(F)cc23)C(=O)N[C@@H](Cc2ccccc2)C(=O)N[C@H](C(N)=O)C(C)(C)O)NC(=O)[C@H](Cc2ccc(O)cc2)NC(=O)[C@H](C(C)C)NC(=O)[C@H](CC(=O)O)NC(=O)[C@H](CC2CCCCC2)NC(=O)[C@H](CCCCNC(=O)CN2CCN(CC(=O)O)CCN(CC(=O)O)CCN(CC(=O)O)CC2)NC(=O)CNC(=O)[C@H](C(C)C)NC1=O` [compound 201, Ac-hLeu-Y-C-V-G-Lys(DOTA)-CHA-D-V-Y-C-5FW-F-hydroxyVal-CONH2] (Ac-[hLeu]YCVGK(DOTA)[Cha]DVYC[Trp(5-F)]F[Val(3-OH)]-NH2; disulfide 3-11), the equilibrium dissociation constant (Kd) under setting [2] lay in the range of 1 to 10 nM.

As for `CCCC[C@H](NC(C)=O)C(=O)N[C@@H](Cc1ccc(O)cc1)C(=O)N[C@H]1CSSC[C@@H](C(=O)N[C@@H](Cc2c[nH]c3ccccc23)C(=O)N[C@@H](Cc2ccccc2)C(=O)N[C@H](C(=O)N[C@H](CCCCNC(=O)CN2CCN(CC(=O)O)CCN(CC(=O)O)CCN(CC(=O)O)CC2)C(N)=O)[C@@H](C)O)NC(=O)[C@H](Cc2ccc(O)cc2)NC(=O)[C@H](C(C)C)NC(=O)[C@H](CCN)NC(=O)[C@H](Cc2ccc(O)cc2)NC(=O)[C@H](CCCCN)NC(=O)CNC(=O)[C@H](C(C)C)NC1=O` [compound 552, Ac-Nle-Y-C-V-G-K-Y-Dab-V-Y-C-W-F-Thr-dLys(DOTA)-CONH2] (Ac-[Nle]YCVGKY[Dab]VYCWFT[dK](DOTA)-NH2; disulfide 3-11), the Kd under setting [2] lay in the range of 10 to 100 nM.

With `CC(=O)N[C@@H](CCC(C)C)C(=O)N[C@@H](Cc1ccc(O)cc1)C(=O)N[C@H]1CSSC[C@@H](C(=O)N[C@@H](Cc2c[nH]c3ccc(F)cc23)C(=O)N[C@@H](Cc2ccccc2)C(=O)N[C@H](C(=O)N[C@H](CCCCNC(=O)CN2CCN(CC(=O)O)CCN(CC(=O)O)CCN(CC(=O)O)CC2)C(=O)O)C(C)(C)O)NC(=O)[C@H](Cc2ccc(O)cc2)NC(=O)[C@H](C(C)C)NC(=O)[C@H](CC(=O)O)NC(=O)[C@H](CC2CCOCC2)NC(=O)[C@@H]2CCN2C(=O)CNC(=O)[C@H](C(C)(C)C)NC1=O` [compound 375, Ac-hLeu-Y-C-Tbg-G-Aze-ThpA-D-V-Y-C-5FW-F-hydroxyVal-dLys(DOTA)-COOH] (Ac-[hLeu]YC[Tle]G[Aze][Ala(4-THP)]DVYC[Trp(5-F)]F[Val(3-OH)][dK](DOTA)-OH; disulfide 3-11), the dissociation constant (Kd) under setting [1] was in the range of 1 to 10 nM.

As for `CC(=O)N[C@@H](CCC(C)C)C(=O)N[C@@H](Cc1ccc(O)cc1)C(=O)N[C@H]1CSSC[C@@H](C(=O)N[C@@H](Cc2cccc3ccccc23)C(=O)N[C@@H](Cc2ccccc2)C(=O)N(C)[C@@H](CO)C(=O)N[C@H](CCCCNC(=O)CN2CCN(CC(=O)O)CCN(CC(=O)O)CCN(CC(=O)O)CC2)C(N)=O)NC(=O)[C@H](CCC#N)NC(=O)[C@H](C(C)C)NC(=O)[C@H](CC(=O)O)NC(=O)[C@H](Cc2ccncc2)NC(=O)[C@H](CCCCN)NC(=O)CNC(=O)[C@H](C(C)(C)C)NC1=O` [compound 221, Ac-hLeu-Y-C-Tbg-G-K-4PyA-D-V-CyanoButric-C-1Nal-F-NMeSer-dLys(DOTA)-CONH2] (Ac-[hLeu]YC[Tle]GK[4Pal]DV[Abu(4-CN)]C[1Nal]F[NMeS][dK](DOTA)-NH2; disulfide 3-11), the Kd under setting [2] lay within 100 to 300 nM.

For `CC(=O)N[C@@H](CCC(C)C)C(=O)N[C@@H](Cc1ccc(O)cc1)C(=O)N[C@H]1CSSC[C@@H](C(=O)N[C@@H](Cc2cccc3ccccc23)C(=O)N[C@@H](Cc2ccccc2)C(=O)N2CCC[C@H]2C(N)=O)NC(=O)[C@H](Cc2ccc(O)cc2)NC(=O)[C@H](C(C)C)NC(=O)[C@H](CC(=O)O)NC(=O)[C@H](Cc2cccc(CNC(=O)COCCOCCOCCOCCOCCOCCOCCOCCNC(=O)CN3CCN(CC(=O)O)CCN(CC(=O)O)CCN(CC(=O)O)CC3)c2)NC(=O)[C@H](CCCCN)NC(=O)CNC(=O)[C@H](C(C)(C)C)NC1=O` [compound 279, Ac-hLeu-Y-C-Tbg-G-K-MAF(PEG8-DOTA)-D-V-Y-C-1Nal-F-Pro-CONH2] (Ac-[hLeu]YC[Tle]GK[Phe(3-CH2NH2)](X7)DVYC[1Nal]FP-NH2; disulfide 3-11), the equilibrium dissociation constant (Kd) under setting [2] fell in the range of 1 to 10 nM.

For the origin of these results see patent US20250296959A1, “B7-H3 TARGETING PEPTIDES AND CONSTRUCTS THEREOF” (Mariana Oncology Inc., priority 2024, published 2025).
